The target in assay [1] is Recombinant human Hsp90 protein. Briefly: Hsp90 ATPase activity assay. Format: biochemical. The settings on record: ADP detection, ATP 100 μM. The text has this: Lianru Zhang, Brian S. J. Blagg, et al. reported that GA inhibited Hsp90 ATPase in vitro[21][38]. The effects of these compounds on Hsp90 ATPase activity were examined by measuring the ability of Hsp90 to hydrolyse ATP using a homogeneous time-resolved fluorescence (HTRF) assay to determine whether the caged-xanthone-derivatives of GA inhibited Hsp90. […] The inhibition of Hsp90 could decrease client protein levels. Based on the enzymatic, structural, and antiproliferative results, 8n was chosen for further investigation.
Figure 9 (A) The caged compounds (50 μM) inhibited the Hsp90 ATPase activity in a HTRF-based inhibition assay. (B) The IC50 values for the inhibition of Hsp90 ATPase by 8n, 8o and GA as detected by the HTRF Transcreener ADP kit. […] The amount of ADP generated was detected. […] (D) The mRNA expression of VEGF was determined by real-time quantitative reverse-transcriptase polymerase chain reaction (RT-PCR) and analysed by the delta Ct method. […]
To measure the Hsp90 ATPase activity, a ADP Hunter Plus Assay kit from DiscoverX was used as previously described. […] Then, the plate was incubated for another 0.5 h after the addition of ATP (100 μM), followed by addition of the detection reagent, and the fluorescence was measured at an excitation wavelength 540 nm and emission wavelength of 620 nm using a spectrophotometer (Varioskan multimode, Thermo). […]

Details of assay [2]: method as in PMID 23167526. The settings on record: cited from earlier work.
Assay [3] has as its system Heps tumour. More on the design: method as in PMID 25958244. The settings on record: Heps-transplanted mice, intravenous (IV) administration; cited from earlier work.

On to `CO[C@H]1/C=C\C=C(/C)C(=O)NC2=CC(=O)C(NCCN(C)C)=C(C[C@@H](C)C[C@H](OC)[C@H](O)[C@@H](C)/C=C(\C)[C@@H]1OC(N)=O)C2=O` [Compound 17-DMAG, 17-(Dimethylaminoethylamino)-17-demethoxygeldanamycin], for which the IC50 in assay [1] was determined as 919 nM. As for `CC(C)=CCC12OC(C)(C)C3[C@@H](CN4CCN(C)CC4)C(C=C4C(=O)c5c(O)cccc5OC431)C2=O` (stereo partly drawn) [DDO-6267], the “oral antitumor activity compared with GA” value in assay [2] is on record as “better oral antitumor activity than GA”. Consider `C/C(=C\CC12OC(C)(C)C3CC(C=C4C(=O)c5c(O)cccc5OC431)C2=O)COC(=O)CN(C)C` (stereo not drawn) [DDO-6306], for which the “inhibition of tumour growth” value in assay [3] is 52.6%.

The values above are taken from paper PMC5073322, “Novel Natural Product-like Caged Xanthones Bearing a Carbamate Moiety Exhibit Antitumor Potency and Anti-Angiogenesis Activity In vivo” (Scientific Reports, 2016).
